In publication PMC11648681, “Development of machine learning models for the prediction of the skin sensitization potential of cosmetic compounds” (PeerJ, 2024):
Several values for one entry are separate records, joined by “and”; a condition that tells them apart may be missing. Identical values can stand only once. Like-named read-outs stand apart in the source and are kept apart here.

Assays:
[1] = test system: THP-1 cells; test: CCK-8 cell viability of THP-1 cells after 48 h compound treatment in HaCaT/THP-1 co-culture; type: cell-based, human; details: 48 h
Procedure: (§1) The co-culture system was set up according to the following described method. […] THP-1 cells were collected, centrifuged, and re-suspended in fresh RPMI-1640 medium supplemented with 10% FBS at 2 × 10^6 cells/mL. Then cells are distributed into HaCaT-seeded 96 wells plate with 80 μL (1.6 × 10^5 cells/well).
(§2) The compounds listed in Table 1 were dissolved in DMSO to create stock solutions with a concentration of 500 mg/mL. Eleven concentrations were subsequently prepared using two-fold serial dilutions. These stock solutions were then further diluted 250-fold in RPMI-1640 + 10% FBS medium. Finally, 80 μL of the prepared solutions were added 1:1 to the treated 96-well plates and incubated for 48 h at 37 °C and 5% CO2.
(§3) After 48 h of treatment, the treated cells were collected 100 μL cells per well. The supernatant medium was added 10 μL of CCK-8 (Life-iLab, Shanghai, China) solution to each well and incubated the plate in the incubator for 2–4 h. THP-1 cell viability was determined using standard calculation methods.
(§4) The cytotoxicity of 15 test compounds listed in Table 1 was assessed using THP-1 cells across a concentration range of 1,000 to 3.9 μg/mL. Cell viability was assessed after 48 h of treatment using the CCK-8 assay.

[2] = as above; type: cell-based, human; details: human; for IC50 at 48 h: THP-1 cells, 48 h treatment, CCK-8, range 1,000 to 3.9 μg/mL, read-out: IC50 (cytotoxicity)
Procedure: as §1, §2, §3, §4

[3] = THP-1 cells in co-culture with HaCaT cells, 48 h, THP-1, individual replicate values
[4] = THP-1 cells in co-culture with HaCaT cells
[5] = 1.95312 μg/mL, THP-1, individual replicate values
[6] = 3.90625 μg/mL, THP-1, individual replicate values
[7] = 7.8125 μg/mL, THP-1, individual replicate values
[8] = 15.625 μg/mL, THP-1, individual replicate values
[9] = 31.25 μg/mL, THP-1, individual replicate values
[10] = 62.5 μg/mL, THP-1, individual replicate values
[11] = 125 μg/mL, THP-1, individual replicate values
[12] = 250 μg/mL, THP-1, individual replicate values
[13] = 500 μg/mL, THP-1, individual replicate values
[14] = 1000 μg/mL, THP-1, individual replicate values
[15] = THP-1 cells in co-culture with HaCaT cells, 31.25 μg/mL, 48 h, THP-1, individual replicate values, read-out: Cell viability
[16] = 0.976563 μg/mL, THP-1, individual replicate values

For `OCC(O)CO` [glycerol, Glycerol], the Cell viability ([1]; human, 31.25 μg/mL) was 116.476%, the viability at 48 h, 31.25 μg/mL ([2]; Cell viability) was 105% and the viability at 48 h, 0.976563 μg/mL [2, 3] was 87.7%. For the same compound, the viability at 48 h, 1.95312 μg/mL [2, 3] was 93.5%, the viability at 48 h, 3.90625 μg/mL [2, 3] was 79.1% and the viability at 48 h, 15.625 μg/mL [2, 3] was 93.7%. The viability at 48 h, 62.5 μg/mL [2, 3] was 110%, the viability at 48 h, 125 μg/mL [2, 3] was 90.6% and the viability at 48 h, 250 μg/mL [2, 3] was 93.5%. The viability at 48 h, 500 μg/mL [2, 3] was 93.4%, the viability at 48 h, 1000 μg/mL [2, 3] was 98.4% and the IC50 at 48 h [2, 4] was over 1000 µg/mL.

In the case of `O=CCc1ccccc1` [phenylacetaldehyde, Phenylacetaldehyde], the Cell viability [1, 5] is reported as 84.3308%, the Cell viability [1, 6] is reported as 77.9774% and the Cell viability [1, 7] is reported as 74.6917%. For the same compound, the Cell viability [1, 8] was 73.3083%, the Cell viability [1, 9] was 14.7368% and the Cell viability [1, 10] was 15.5263%. For the same compound, the Cell viability [1, 11] was 17.3609%, the Cell viability [1, 12] was 19.4737% and the Cell viability [1, 13] was 22.2782%. For the same compound, the Cell viability [1, 14] was 20.8421%, the “final concentration used (highest concentration that maintained at least 80% cell viability)” value ([1]; THP-1 cells, CCK-8, single (not double) concentration) was 7.8 µg/mL and the viability at 48 h, 0.976563 μg/mL [2, 3] was 84.7%. For the same compound, the viability at 48 h, 1.95312 μg/mL [2, 3] was 85.6%, the viability at 48 h, 3.90625 μg/mL [2, 3] was 84.7% and the viability at 48 h, 7.8125 μg/mL [2, 3] was 80.6%. It also gave a viability at 48 h, 15.625 μg/mL [2, 3] of 74.2%, a viability at 48 h, 31.25 μg/mL [2, 15] of 14.8% and a viability at 48 h, 62.5 μg/mL [2, 3] of 15.8%. It also gave a viability at 48 h, 125 μg/mL [2, 3] of 17%, a viability at 48 h, 250 μg/mL [2, 3] of 19.5% and a viability at 48 h, 500 μg/mL [2, 3] of 21.5%. It also gave a viability at 48 h, 1000 μg/mL [2, 3] of 18.6%.

With `Oc1cccc(O)c1` [resorcinol, Resorcinol] the Cell viability [1, 16] was 87.3677%, the Cell viability [1, 5] was 103.314% and 82.4843% and the Cell viability [1, 6] was 80.4798%. For the same compound, the Cell viability [1, 7] was 98.5964%, the Cell viability [1, 8] was 93.1569% and the Cell viability [1, 10] was 79.0942%. It also gave a Cell viability [1, 11] of 70.9013%, a Cell viability [1, 12] of 60.5067% and a Cell viability [1, 13] of 57.2511%. The Cell viability [1, 14] was 56.1435%, the Cell viability ([1]; human, 31.25 μg/mL) was 84.1435% and the viability at 48 h, 31.25 μg/mL ([2]; Cell viability) was 81.4%. It also gave a viability at 48 h, 0.976563 μg/mL [2, 3] of 86.4%, a viability at 48 h, 3.90625 μg/mL [2, 3] of 99.3% and a viability at 48 h, 7.8125 μg/mL [2, 3] of 95.8%. It also gave a viability at 48 h, 15.625 μg/mL [2, 3] of 86.8%, a viability at 48 h, 62.5 μg/mL [2, 3] of 68% and a viability at 48 h, 125 μg/mL [2, 3] of 66.2%. For the same compound, the viability at 48 h, 250 μg/mL [2, 3] was 59.3%, the viability at 48 h, 500 μg/mL [2, 3] was 56.3% and the viability at 48 h, 1000 μg/mL [2, 3] was 58.1%.

In the case of `CC(C)CCCC(C)CCCC(C)CCCCC(C)CCCC(C)CCCC(C)C` (stereo not drawn) [squalane, Squalane], the Cell viability [1, 16] is reported as 122.038%, the Cell viability [1, 5] is reported as 117.419% and the Cell viability [1, 6] is reported as 88.2476%. The Cell viability [1, 7] was 84.8%, the Cell viability [1, 8] was 88.8667% and the Cell viability [1, 9] was 81.4095%. It also gave a Cell viability [1, 11] of 94.8381%, a Cell viability [1, 12] of 87.1048% and a Cell viability [1, 13] of 84.4381%. For the same compound, the Cell viability [1, 14] was 95.019%, the viability at 48 h, 3.90625 μg/mL [2, 3] was 85.4% and the viability at 48 h, 7.8125 μg/mL [2, 3] was 85%. It also gave a viability at 48 h, 15.625 μg/mL [2, 3] of 78.7%, a viability at 48 h, 31.25 μg/mL [2, 15] of 89.3% and a viability at 48 h, 62.5 μg/mL [2, 3] of 87.1%. It also gave a viability at 48 h, 125 μg/mL [2, 3] of 98%, a viability at 48 h, 250 μg/mL [2, 3] of 83.7% and a viability at 48 h, 500 μg/mL [2, 3] of 82%. The viability at 48 h, 1000 μg/mL [2, 3] was 91.2% and the IC50 at 48 h [2, 4] was over 1000 µg/mL.
